In patent US9932314B2, “Pyrazole compounds and their use as T-type calcium channel blockers” (IDORSIA PHARMACEUTICALS LTD, priority 2015, dated 2018):

Biological target: T1, voltage-dependent T-type calcium channel subunit alpha-1G (Cav3.2) (Homo sapiens, UniProt O95180)
T1 construct: expressed in transfected cells; host or cells: HEK293
Assay: FLIPR calcium flux assay, HEK293 cells recombinantly expressing Cav3.2
Assay type: cell-based
Settings: Cav3.2-channel, Fluo-4-AM, 3 min incubation, stimulation with 10 mM CaCl2
Procedure, shortened: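 HEK293 cells stably expressing human Cav3.2 were loaded with Fluo-4-AM. Compounds diluted in TEAC buffer (pH 7.2) were preincubated for 3 min, then Ca2+ entry was triggered by 10 mM final CaCl2. Inhibition curves were fitted sigmoidally to the area under the fluorescence trace.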

T1 sequence (O95180 whole entry): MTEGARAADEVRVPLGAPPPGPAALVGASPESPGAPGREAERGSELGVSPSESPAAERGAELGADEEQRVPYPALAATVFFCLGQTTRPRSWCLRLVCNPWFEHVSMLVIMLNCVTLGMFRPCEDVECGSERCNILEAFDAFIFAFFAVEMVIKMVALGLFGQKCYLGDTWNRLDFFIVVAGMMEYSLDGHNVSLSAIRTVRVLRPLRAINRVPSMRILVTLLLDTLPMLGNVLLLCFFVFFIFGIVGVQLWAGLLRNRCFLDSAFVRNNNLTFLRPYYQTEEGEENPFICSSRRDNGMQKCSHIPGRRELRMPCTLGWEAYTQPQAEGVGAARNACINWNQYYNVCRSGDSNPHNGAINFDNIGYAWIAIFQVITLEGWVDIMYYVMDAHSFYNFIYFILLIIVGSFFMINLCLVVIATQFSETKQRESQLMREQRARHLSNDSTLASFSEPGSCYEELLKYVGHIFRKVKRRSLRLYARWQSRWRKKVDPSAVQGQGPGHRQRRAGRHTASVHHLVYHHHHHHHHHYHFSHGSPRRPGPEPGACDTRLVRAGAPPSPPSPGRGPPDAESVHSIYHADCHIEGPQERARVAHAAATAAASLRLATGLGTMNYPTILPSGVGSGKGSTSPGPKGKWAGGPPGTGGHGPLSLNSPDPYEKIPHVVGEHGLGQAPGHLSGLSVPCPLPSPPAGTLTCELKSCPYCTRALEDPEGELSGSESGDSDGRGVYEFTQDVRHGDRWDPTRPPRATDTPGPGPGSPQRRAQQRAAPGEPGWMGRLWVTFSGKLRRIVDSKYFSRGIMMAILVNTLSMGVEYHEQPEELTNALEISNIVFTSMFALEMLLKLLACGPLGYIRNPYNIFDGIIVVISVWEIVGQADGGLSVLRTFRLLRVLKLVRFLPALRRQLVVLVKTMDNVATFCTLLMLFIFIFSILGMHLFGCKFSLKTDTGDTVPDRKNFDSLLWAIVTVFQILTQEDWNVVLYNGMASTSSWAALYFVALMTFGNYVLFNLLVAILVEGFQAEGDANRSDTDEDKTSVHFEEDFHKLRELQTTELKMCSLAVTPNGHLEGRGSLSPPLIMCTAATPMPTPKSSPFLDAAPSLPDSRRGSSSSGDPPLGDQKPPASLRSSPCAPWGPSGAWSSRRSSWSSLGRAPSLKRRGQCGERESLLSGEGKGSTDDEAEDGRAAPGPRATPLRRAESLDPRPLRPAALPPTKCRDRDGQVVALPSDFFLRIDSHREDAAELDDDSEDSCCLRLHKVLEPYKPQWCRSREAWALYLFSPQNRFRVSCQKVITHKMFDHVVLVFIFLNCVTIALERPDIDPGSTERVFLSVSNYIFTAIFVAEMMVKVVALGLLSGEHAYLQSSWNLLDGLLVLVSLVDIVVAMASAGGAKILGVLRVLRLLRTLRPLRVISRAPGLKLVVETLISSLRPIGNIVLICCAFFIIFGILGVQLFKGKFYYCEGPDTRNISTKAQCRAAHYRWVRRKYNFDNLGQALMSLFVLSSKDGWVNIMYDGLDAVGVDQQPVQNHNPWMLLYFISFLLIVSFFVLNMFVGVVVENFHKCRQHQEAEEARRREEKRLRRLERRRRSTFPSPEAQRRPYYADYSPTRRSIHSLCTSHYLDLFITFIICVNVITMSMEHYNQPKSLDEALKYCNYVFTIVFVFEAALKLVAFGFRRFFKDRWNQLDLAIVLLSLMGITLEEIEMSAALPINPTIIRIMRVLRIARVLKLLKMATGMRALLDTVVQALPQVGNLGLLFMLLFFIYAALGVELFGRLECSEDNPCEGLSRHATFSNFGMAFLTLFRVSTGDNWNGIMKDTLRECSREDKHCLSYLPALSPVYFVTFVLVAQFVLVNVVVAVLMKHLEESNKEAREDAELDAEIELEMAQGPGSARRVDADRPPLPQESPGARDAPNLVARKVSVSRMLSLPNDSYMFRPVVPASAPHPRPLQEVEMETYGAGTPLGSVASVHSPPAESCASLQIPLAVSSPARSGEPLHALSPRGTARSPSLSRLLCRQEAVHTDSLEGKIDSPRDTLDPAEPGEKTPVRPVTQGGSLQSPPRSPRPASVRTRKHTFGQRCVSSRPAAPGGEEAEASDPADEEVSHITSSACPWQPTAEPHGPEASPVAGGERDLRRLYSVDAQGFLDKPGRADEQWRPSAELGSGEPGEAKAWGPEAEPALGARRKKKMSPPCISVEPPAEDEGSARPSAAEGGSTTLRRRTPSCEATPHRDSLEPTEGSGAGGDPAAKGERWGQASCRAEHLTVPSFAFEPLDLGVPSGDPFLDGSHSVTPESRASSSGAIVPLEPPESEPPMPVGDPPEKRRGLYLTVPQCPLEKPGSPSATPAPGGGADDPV

| IC50 | SMILES |
| --- | --- |
| 7050 nM | N#Cc1ccc(Cn2ccc(NC(=O)Cc3ccc(N4CCC4)nc3)n2)nc1 [Example 102, 2-(6-Azetidin-1-yl-pyridin-3-yl)-N-[1-(5-cyano-pyridin-2-ylmethyl)-1H-pyrazol-3-yl]-acetamide] |
| 145 nM | O=C(Cc1ccc(N2CCC2)nc1)Nc1ccn(Cc2ccc(F)cc2)n1 [Example 103, 2-(6-Azetidin-1-yl-pyridin-3-yl)-N-[1-(4-fluoro-benzyl)-1H-pyrazol-3-yl]-acetamide] |
| 4520 nM | COCCOc1ccc(Cn2ccc(NC(=O)Cc3ccc(C(C)C)cc3)n2)nc1 [Example 104, 2-(4-Isopropyl-phenyl)-N-{1-[5-(2-methoxy-ethoxy)-pyridin-2-ylmethyl]-1H-pyrazol-3-yl}-acetamide] |
| 31 nM | CC(C)Oc1ccc(Cn2ccc(NC(=O)Cc3ccc(C(C)C)cc3)n2)nc1 [Example 105, N-[1-(5-Isopropoxy-pyridin-2-ylmethyl)-1H-pyrazol-3-yl]-2-(4-isopropyl-phenyl)-acetamide] |
| 15 nM | CC(C)c1ccc(CC(=O)Nc2ccn(Cc3ccc(F)cn3)n2)cc1 [Example 106, N-[1-(5-Fluoro-pyridin-2-ylmethyl)-1H-pyrazol-3-yl]-2-(4-isopropyl-phenyl)-acetamide] |
| 338 nM | CC(C)c1ccc(CC(=O)Nc2ccn(Cc3ccc(N(C)C)cn3)n2)cc1 [Example 107, N-[1-(5-Dimethylamino-pyridin-2-ylmethyl)-1H-pyrazol-3-yl]-2-(4-isopropyl-phenyl)-acetamide] |
| 322 nM | CC(C)c1ccc(CC(=O)Nc2ccn(Cc3ccc(N4CC[C@H](F)C4)cn3)n2)cc1 [Example 108, N-{1-[5-((S)-3-Fluoro-pyrrolidin-1-yl)-pyridin-2-ylmethyl]-1H-pyrazol-3-yl}-2-(4-isopropyl-phenyl)-acetamide] |
| 22 nM | CC(C)c1ccc(CC(=O)Nc2ccn(Cc3ccc(C(F)(F)F)cn3)n2)cc1 [Example 109, 2-(4-Isopropyl-phenyl)-N-[1-(5-trifluoromethyl-pyridin-2-ylmethyl)-1H-pyrazol-3-yl]-acetamide] |
| 14 nM | CC(C)c1ccc(CC(=O)Nc2ccn(Cc3ccc(C#N)c(Cl)n3)n2)cc1 [Example 110, N-[1-(6-Chloro-5-cyano-pyridin-2-ylmethyl)-1H-pyrazol-3-yl]-2-(4-isopropyl-phenyl)-acetamide] |
| 1330 nM | N#Cc1ccc(Cn2ccc(NC(=O)Cc3ccc(N4CCC4)nc3)n2)cc1 [Example 111, 2-(6-Azetidin-1-yl-pyridin-3-yl)-N-[1-(4-cyano-benzyl)-1H-pyrazol-3-yl]-acetamide] |
| 21 nM | CCN(CC)c1ccc(CC(=O)Nc2ccn(Cc3ccc(OC)cc3)n2)cc1 [Example 112, 2-(4-Diethylamino-phenyl)-N-[1-(4-methoxy-benzyl)-1H-pyrazol-3-yl]-acetamide] |
| 4.8 nM | CCN(CC)c1ccc(CC(=O)Nc2ccn(Cc3ccc(F)c(F)c3)n2)cc1 [Example 113, 2-(4-Diethylamino-phenyl)-N-[1-(3,4-difluoro-benzyl)-1H-pyrazol-3-yl]-acetamide] |
| 14 nM | CCN(CC)c1ccc(CC(=O)Nc2ccn(Cc3ccc(C#N)cc3)n2)cc1 [Example 114, N-[1-(4-Cyano-benzyl)-1H-pyrazol-3-yl]-2-(4-diethylamino-phenyl)-acetamide] |
| 57 nM | CCc1nc(Cn2ccc(NC(=O)Cc3ccc(C(C)C)cc3)n2)ccc1C#N [Example 115, N-[1-(5-Cyano-6-ethyl-pyridin-2-ylmethyl)-1H-pyrazol-3-yl]-2-(4-isopropyl-phenyl)-acetamide] |
| 75 nM | COc1nc(Cn2ccc(NC(=O)Cc3ccc(C(C)C)cc3)n2)ccc1C#N [Example 116, N-[1-(5-Cyano-6-methoxy-pyridin-2-ylmethyl)-1H-pyrazol-3-yl]-2-(4-isopropyl-phenyl)-acetamide] |
| 332 nM | CC(C)c1ccc(CC(=O)Nc2ccn(Cc3ccc(C#N)c(OCC(F)(F)F)n3)n2)cc1 [Example 117, N-{1-[5-Cyano-6-(2,2,2-trifluoro-ethoxy)-pyridin-2-ylmethyl]-1H-pyrazol-3-yl}-2-(4-isopropyl-phenyl)-acetamide] |
| 97 nM | CC(C)Oc1nc(Cn2ccc(NC(=O)Cc3ccc(C(C)C)cc3)n2)ccc1C#N [Example 118, N-[1-(5-Cyano-6-isopropoxy-pyridin-2-ylmethyl)-1H-pyrazol-3-yl]-2-(4-isopropyl-phenyl)-acetamide] |
| 137 nM | N#Cc1ccc(Cn2ccc(NC(=O)Cc3ccc(N4CCC(F)(F)C4)nc3)n2)nc1 [Example 119, N-[1-(5-Cyano-pyridin-2-ylmethyl)-1H-pyrazol-3-yl]-2-[6-(3,3-difluoro-pyrrolidin-1-yl)-pyridin-3-yl]-acetamide] |
| 68 nM | N#Cc1ccc(Cn2ccc(NC(=O)Cc3ccc(N4CCC(F)(F)C4)nc3)n2)cc1 [Example 121, N-[1-(4-Cyano-benzyl)-1H-pyrazol-3-yl]-2-[6-(3,3-difluoro-pyrrolidin-1-yl)-pyridin-3-yl]-acetamide] |

| IC50 | SMILES |
| --- | --- |
| 19 nM | O=C(Cc1ccc(N2CCC(F)(F)C2)nc1)Nc1ccn(Cc2ccc(F)cc2)n1 [Example 122, 2-[6-(3,3-Difluoro-pyrrolidin-1-yl)-pyridin-3-yl]-N-[1-(4-fluoro-benzyl)-1H-pyrazol-3-yl]-acetamide] |
| 1270 nM | CCN(CC)c1ccc(CC(=O)Nc2ccn(Cc3ccc(C#N)cn3)n2)cn1 [Example 123, N-[1-(5-Cyano-pyridin-2-ylmethyl)-1H-pyrazol-3-yl]-2-(6-diethylamino-pyridin-3-yl)-acetamide] |
| 9.9 nM | CCN(CC)c1ccc(CC(=O)Nc2ccn(Cc3ccc(F)c(F)c3)n2)cn1 [Example 124, 2-(6-Diethylamino-pyridin-3-yl)-N-[1-(3,4-difluoro-benzyl)-1H-pyrazol-3-yl]-acetamide] |
| 64 nM | COCCN(C)c1ccc(CC(=O)Nc2ccn(Cc3ccc(OC)cc3)n2)cc1 [Example 125, N-[1-(4-Methoxy-benzyl)-1H-pyrazol-3-yl]-2-{4-[(2-methoxy-ethyl)-methyl-amino]-phenyl}-acetamide] |
| 3.4 nM | COCCN(C)c1ccc(CC(=O)Nc2ccn(Cc3ccc(F)c(F)c3)n2)cc1 [Example 126] |
| 27 nM | COCCN(C)c1ccc(CC(=O)Nc2ccn(Cc3ccc(C#N)cc3)n2)cc1 [Example 127, N-[1-(4-Cyano-benzyl)-1H-pyrazol-3-yl]-2-{4-[(2-methoxy-ethyl)-methyl-amino]-phenyl}-acetamide] |
| 9.7 nM | COCCN(C)c1ccc(CC(=O)Nc2ccn(Cc3ccc(F)cc3)n2)cc1 [Example 128, N-[1-(4-Fluoro-benzyl)-1H-pyrazol-3-yl]-2-{4-[(2-methoxy-ethyl)-methyl-amino]-phenyl}-acetamide] |
| 128 nM | CCN(C)c1ccc(CC(=O)Nc2ccn(Cc3ccc(OC)cc3)n2)cc1 [Example 129, 2-[4-(Ethyl-methyl-amino)-phenyl]-N-[1-(4-methoxy-benzyl)-1H-pyrazol-3-yl]-acetamide] |
| 293 nM | CCN(C)c1ccc(CC(=O)Nc2ccn(Cc3ccc(F)c(F)c3)n2)cc1 [Example 130, N-[1-(3,4-Difluoro-benzyl)-1H-pyrazol-3-yl]-2-[4-(ethyl-methyl-amino)-phenyl]-acetamide] |
| 88 nM | COc1ccc(Cn2ccc(NC(=O)Cc3ccc(C(C)C)cc3)n2)nc1 [Example 131, 2-(4-Isopropyl-phenyl)-N-[1-(5-methoxy-pyridin-2-ylmethyl)-1H-pyrazol-3-yl]-acetamide] |
| 51 nM | Cc1nc(Cn2ccc(NC(=O)Cc3ccc(C(C)C)cc3)n2)ccc1C#N [Example 132, N-[1-(5-Cyano-6-methyl-pyridin-2-ylmethyl)-1H-pyrazol-3-yl]-2-(4-isopropyl-phenyl)-acetamide] |
| 191 nM | CC(C)c1ccc(CC(=O)Nc2ccn(Cc3ccc(C#N)c(C4CC4)n3)n2)cc1 [Example 133, N-[1-(5-Cyano-6-cyclopropyl-pyridin-2-ylmethyl)-1H-pyrazol-3-yl]-2-(4-isopropyl-phenyl)-acetamide] |
| 428 nM | CC(C)Cc1nc(Cn2ccc(NC(=O)Cc3ccc(C(C)C)cc3)n2)ccc1C#N [Example 134, N-[1-(5-Cyano-6-isobutyl-pyridin-2-ylmethyl)-1H-pyrazol-3-yl]-2-(4-isopropyl-phenyl)-acetamide] |
| 247 nM | Cc1nc2ccc(CC(=O)Nc3ccn(Cc4ccc(F)c(F)c4)n3)cc2[nH]1 [Example 135, N-[1-(3,4-Difluoro-benzyl)-1H-pyrazol-3-yl]-2-(2-methyl-3H-benzoimidazol-5-yl)-acetamide] |
| 1570 nM | Cc1nc2ccc(CC(=O)Nc3ccn(Cc4ccc(C#N)cc4)n3)cc2[nH]1 [Example 136, N-[1-(4-Cyano-benzyl)-1H-pyrazol-3-yl]-2-(2-methyl-3H-benzoimidazol-5-yl)-acetamide] |
| 313 nM | Cc1nc2ccc(CC(=O)Nc3ccn(Cc4ccc(F)cc4)n3)cc2[nH]1 [Example 137, N-[1-(4-Fluoro-benzyl)-1H-pyrazol-3-yl]-2-(2-methyl-3H-benzoimidazol-5-yl)-acetamide] |
| 756 nM | N#Cc1ccc(Cn2ccc(NC(=O)Cc3ccc(N4CC[C@@H](F)C4)nc3)n2)nc1 [Example 138, N-[1-(5-Cyano-pyridin-2-ylmethyl)-1H-pyrazol-3-yl]-2-[6-((R)-3-fluoro-pyrrolidin-1-yl)-pyridin-3-yl]-acetamide] |
| 176 nM | N#Cc1ccc(Cn2ccc(NC(=O)Cc3ccc(N4CC[C@@H](F)C4)nc3)n2)cc1 [Example 140, N-[1-(4-Cyano-benzyl)-1H-pyrazol-3-yl]-2-[6-((R)-3-fluoro-pyrrolidin-1-yl)-pyridin-3-yl]-acetamide] |
| 35 nM | O=C(Cc1ccc(N2CC[C@@H](F)C2)nc1)Nc1ccn(Cc2ccc(F)cc2)n1 [Example 141, N-[1-(4-Fluoro-benzyl)-1H-pyrazol-3-yl]-2-[6-((R)-3-fluoro-pyrrolidin-1-yl)-pyridin-3-yl]-acetamide] |
